# Experimental data taken from PubChem BioAssay AID1963873 (Molecular Pharmacology Branch, DTP, NCI, 2024).
# System: 276233-004-R-J1-PDC KRAS spheroids with HUVEC/MSC, viability
# Test: Anticancer human tumor 276233-004-R-J1-PDC patient-derived colon adenocarcinoma cell line growth inhibition [KRAS2]
# Conditions: for IC50: curve of first compound; for viability, T/C: stronger effect = lower value
# Method in brief: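 KRAS-mutant tumor cells were grown as spheroids with HUVEC endothelial cells and human MSCs as stroma. Targeted agents were tested alone and with KRAS pathway inhibitors. Doses started at or near clinical Cmax, or 10 microM, descending half-log.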
# [1] = second compound 0.1 µM, first compound 0.0316 µM
# [2] = second compound 0.1 µM, first compound 0.1 µM
# [3] = second compound 0.1 µM, first compound 0.316 µM
# [4] = second compound 0.1 µM, first compound 1 µM
# [5] = second compound 0.1 µM, first compound 3.16 µM
# [6] = second compound 0.1 µM, first compound 10 µM
# [7] = second compound 0.316 µM, first compound 0.0316 µM
# [8] = second compound 0.316 µM, first compound 0.1 µM
# [9] = second compound 0.316 µM, first compound 0.316 µM
# [10] = second compound 0.316 µM, first compound 1 µM
# [11] = second compound 0.316 µM, first compound 3.16 µM
# [12] = second compound 0.316 µM, first compound 10 µM
# [13] = second compound 1 µM, first compound 0.0316 µM
# [14] = second compound 1 µM, first compound 0.1 µM
# [15] = second compound 1 µM, first compound 0.316 µM
# [16] = second compound 1 µM, first compound 1 µM
# [17] = second compound 1 µM, first compound 3.16 µM
# [18] = second compound 1 µM, first compound 10 µM
# [19] = second compound 3.16 µM, first compound 0.0316 µM
# [20] = second compound 3.16 µM, first compound 0.1 µM
# [21] = second compound 3.16 µM, first compound 0.316 µM
# [22] = second compound 3.16 µM, first compound 1 µM
# [23] = second compound 3.16 µM, first compound 3.16 µM
# [24] = second compound 3.16 µM, first compound 10 µM
# [25] = second compound 10 µM, first compound 0.0316 µM
# [26] = second compound 10 µM, first compound 0.1 µM
# [27] = second compound 10 µM, first compound 0.316 µM
# [28] = second compound 10 µM, first compound 1 µM
# [29] = second compound 10 µM, first compound 3.16 µM
# [30] = second compound 10 µM, first compound 10 µM
# [31] = second compound 0.1 µM, first compound 0.00316 µM
# [32] = second compound 0.1 µM, first compound 0.01 µM
# [33] = second compound 0.316 µM, first compound 0.00316 µM
# [34] = second compound 0.316 µM, first compound 0.01 µM
# [35] = second compound 1 µM, first compound 0.00316 µM
# [36] = second compound 1 µM, first compound 0.01 µM
# [37] = second compound 3.16 µM, first compound 0.00316 µM
# [38] = second compound 3.16 µM, first compound 0.01 µM
# [39] = second compound 10 µM, first compound 0.00316 µM
# [40] = second compound 10 µM, first compound 0.01 µM
# 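Further: cells exposed to agents for seven days before viability read.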
# 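Wherever viability, T/C is given: 100% = DMSO vehicle control wells and lower values mean fewer viable cells.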
compound,measurement,setting,value
CC(C)NCC(C(=O)N1CCN(c2ncnc3c2C(C)CC3O)CC1)c1ccc(Cl)cc1 (stereo not given) + CNCc1ccccc1-c1csc(C(C)Nc2nc(C)nc3cc(OC)c(OC)cc23)c1,IC50,second compound 0.1 µM,> 10000 nM
same,IC50,second compound 0.316 µM,> 10000 nM
same,IC50,second compound 1 µM,563 nM
same,IC50,second compound 3.16 µM,< 31.6 nM
same,IC50,second compound 10 µM,< 31.6 nM
same,"viability, T/C",[1],77.2%
same,"viability, T/C",[2],69.9%
same,"viability, T/C",[3],79.5%
same,"viability, T/C",[4],78.8%
same,"viability, T/C",[5],66%
same,"viability, T/C",[6],53.6%
same,"viability, T/C",[7],88.3%
same,"viability, T/C",[8],96.1%
same,"viability, T/C",[9],76.4%
same,"viability, T/C",[10],70.6%
same,"viability, T/C",[11],70.4%
same,"viability, T/C",[12],58.6%
same,"viability, T/C",[13],66.9%
same,"viability, T/C",[14],50.1%
same,"viability, T/C",[15],78.5%
same,"viability, T/C",[16],34.9%
same,"viability, T/C",[17],23.9%
same,"viability, T/C",[18],38.2%
same,"viability, T/C",[19],0.57%
same,"viability, T/C",[20],0.54%
same,"viability, T/C",[21],0.43%
same,"viability, T/C",[22],0.58%
same,"viability, T/C",[23],0.56%
same,"viability, T/C",[24],0.49%
same,"viability, T/C",[25],0.2%
same,"viability, T/C",[26],0.22%
same,"viability, T/C",[27],0.18%
same,"viability, T/C",[28],0.2%
same,"viability, T/C",[29],1.04%
same,"viability, T/C",[30],0.31%
CC1(C)CCC(CN2CCN(c3ccc(C(=O)NS(=O)(=O)c4ccc(NCC5CCOCC5)c([N+](=O)[O-])c4)c(Oc4cnc5[nH]ccc5c4)c3)CC2)=C(c2ccc(Cl)cc2)C1 + CNCc1ccccc1-c1csc(C(C)Nc2nc(C)nc3cc(OC)c(OC)cc23)c1,IC50,second compound 0.1 µM,> 10000 nM
same,IC50,second compound 0.316 µM,7260 nM
same,IC50,second compound 1 µM,> 10000 nM
same,IC50,second compound 3.16 µM,< 31.6 nM
same,IC50,second compound 10 µM,< 31.6 nM
same,"viability, T/C",[1],81.9%
same,"viability, T/C",[2],111%
same,"viability, T/C",[3],105%
same,"viability, T/C",[4],75.4%
same,"viability, T/C",[5],79.5%
same,"viability, T/C",[6],67.3%
same,"viability, T/C",[7],102%
same,"viability, T/C",[8],94.9%
same,"viability, T/C",[9],77.5%
same,"viability, T/C",[10],103%
same,"viability, T/C",[11],69.9%
same,"viability, T/C",[12],42.3%
same,"viability, T/C",[13],110%
same,"viability, T/C",[14],51.5%
same,"viability, T/C",[15],65.7%
same,"viability, T/C",[16],59.4%
same,"viability, T/C",[17],58.5%
same,"viability, T/C",[18],42%
same,"viability, T/C",[19],0.58%
same,"viability, T/C",[20],0.56%
same,"viability, T/C",[21],0.78%
same,"viability, T/C",[22],0.7%
same,"viability, T/C",[23],0.34%
same,"viability, T/C",[24],1.88%
same,"viability, T/C",[25],0.18%
same,"viability, T/C",[26],0.21%
same,"viability, T/C",[27],0.17%
same,"viability, T/C",[28],0.17%
same,"viability, T/C",[29],0.39%
same,"viability, T/C",[30],0.28%
CCN1CCN(Cc2ccc(Nc3ncc(F)c(-c4cc(F)c5nc(C)n(C(C)C)c5c4)n3)nc2)CC1 + CNCc1ccccc1-c1csc(C(C)Nc2nc(C)nc3cc(OC)c(OC)cc23)c1,IC50,second compound 0.1 µM,> 1000 nM
same,IC50,second compound 0.316 µM,> 1000 nM
same,IC50,second compound 1 µM,540 nM
same,IC50,second compound 3.16 µM,< 3.16 nM
same,IC50,second compound 10 µM,< 3.16 nM
same,"viability, T/C",[31],129%
same,"viability, T/C",[32],106%
same,"viability, T/C",[1],87.1%
same,"viability, T/C",[2],92.1%
same,"viability, T/C",[3],126%
same,"viability, T/C",[4],115%
same,"viability, T/C",[33],90.2%
same,"viability, T/C",[34],111%
same,"viability, T/C",[7],95.3%
same,"viability, T/C",[8],107%
same,"viability, T/C",[9],104%
same,"viability, T/C",[10],116%
same,"viability, T/C",[35],92.2%
same,"viability, T/C",[36],96.9%
same,"viability, T/C",[13],76.3%
same,"viability, T/C",[14],76.2%
same,"viability, T/C",[15],80.7%
same,"viability, T/C",[16],16%
same,"viability, T/C",[37],0.71%
same,"viability, T/C",[38],0.53%
same,"viability, T/C",[19],0.51%
same,"viability, T/C",[20],0.41%
same,"viability, T/C",[21],1.45%
same,"viability, T/C",[22],0.72%
same,"viability, T/C",[39],0.81%
same,"viability, T/C",[40],1.33%
same,"viability, T/C",[25],0.33%
same,"viability, T/C",[26],0.21%
same,"viability, T/C",[27],0.22%
same,"viability, T/C",[28],0.3%
Cn1ncnc1[C@H]1c2n[nH]c(=O)c3cc(F)cc(c23)N[C@@H]1c1ccc(F)cc1 + CNCc1ccccc1-c1csc(C(C)Nc2nc(C)nc3cc(OC)c(OC)cc23)c1,IC50,second compound 0.1 µM,> 100 nM
same,IC50,second compound 0.316 µM,> 100 nM
same,IC50,second compound 1 µM,> 100 nM
same,IC50,second compound 3.16 µM,< 0.316 nM
same,IC50,second compound 10 µM,< 0.316 nM
same,"viability, T/C","second compound 0.1 µM, first compound 0.000316 µM",113%
same,"viability, T/C","second compound 0.1 µM, first compound 0.001 µM",115%
same,"viability, T/C",[31],98.2%
same,"viability, T/C",[32],107%
same,"viability, T/C",[1],87.6%
same,"viability, T/C",[2],120%
same,"viability, T/C","second compound 0.316 µM, first compound 0.000316 µM",96.1%
same,"viability, T/C","second compound 0.316 µM, first compound 0.001 µM",119%
same,"viability, T/C",[33],116%
same,"viability, T/C",[34],124%
same,"viability, T/C",[7],83.2%
same,"viability, T/C",[8],98.5%
same,"viability, T/C","second compound 1 µM, first compound 0.000316 µM",56.7%
same,"viability, T/C","second compound 1 µM, first compound 0.001 µM",69.5%
same,"viability, T/C",[35],75.1%
same,"viability, T/C",[36],68.2%
same,"viability, T/C",[13],50.2%
same,"viability, T/C",[14],78%
same,"viability, T/C","second compound 3.16 µM, first compound 0.000316 µM",9.27%
same,"viability, T/C","second compound 3.16 µM, first compound 0.001 µM",0.64%
same,"viability, T/C",[37],0.7%
same,"viability, T/C",[38],0.62%
same,"viability, T/C",[19],0.53%
same,"viability, T/C",[20],0.74%
same,"viability, T/C","second compound 10 µM, first compound 0.000316 µM",0.22%
same,"viability, T/C","second compound 10 µM, first compound 0.001 µM",0.22%
same,"viability, T/C",[39],0.22%
same,"viability, T/C",[40],0.2%
same,"viability, T/C",[25],0.18%
same,"viability, T/C",[26],2.9%
